Drawing on US12637435B2, “Nitrogen-containing heterocyclic compound or salt thereof, use thereof, and intermediate thereof” (FUJIFILM Corporation, priority 2020, dated 2026), this text covers GI50 and IC50 for 31 molecules.

Assay [1] has as its system human myeloid leukemia cell line HL60. Nature of the assay: Cell growth test, HL60 (CellTiter-Glo). It counts as cell-based. The settings on record: HL-60, 72 h, HL60 cells, 3 days, CellTiter-Glo luminescence, read-out: Cell growth inhibitory effect (GI50). Here is the method:
The cell growth test was carried out using the human myeloid leukemia cell line HL60 (available from ATCC, CRL-240). As a culture medium of HL60 cells, RPMI 1640 (available from FUJIFILM Wako Pure Chemical Corporation, 189-02025) supplemented with 10% fetal bovine serum (available from Thermo Fisher Scientific, Inc., 10437-028), and 1% penicillin-streptomycin (10,000 U/mL, available from Thermo Fisher Scientific, Inc., 15140-122) was used. HL60 cells were seeded on a 384-well plate (available from Corning Inc., 4588) at a cell density of 1×10^3 cells/20 μL/well. After culturing overnight, 5 μL of the test compound having a predetermined concentration was added, and 3 days later, 25 μL of CellTiter-Glo (registered trademark) Luminescent Cell Viability Assay (available from Promega Corporation, G7573) was added, and then the amount of luminescence was measured using an EnVision plate reader (available from PerkinElmer, Inc.). Since the amount of luminescence is proportional to the intracellular concentration of adenosine triphosphate (ATP), the amount of luminescence was used as an indicator of the number of viable cells. The growth inhibitory concentration for each test compound concentration was calculated by the following expression.
The growth inhibition rate at each test compound concentration was determined, and the 50% growth inhibitory concentration [GI50 (nmol/L)] was calculated using XLfit. Growth inhibition rate (%)=(amount of luminescence in test compound-added well)/(amount of luminescence in DMSO-added well)×100
The abbreviations in the table have the following meanings. • A: GI50 value<100 nmol/L • B: 100 nmol/L≤GI50 value<1,000 nmol/L • C: 1,000 nmol/L≤GI50 value
(In general: In ATP-based viability assays light output follows the ATP content of the culture.)

For assay [2], the target named is T1, recombinant human DHODH (Homo sapiens, UniProt Q02127).
T1 construct: DHODH, 31-395aa, Human, His tag, E. coli, ATGP1615; His tag; purchased ATGen Co. Ltd. ATGP1615; host or cells: E. coli
Nature of the assay: DHODH enzyme reaction inhibition test (DCIP-coupled assay). It counts as biochemical. The settings on record: recombinant human DHODH 0.175 μg/mL, DCIP absorbance 600 nm, 50 minutes, pH 8.0; read-out: Enzyme reaction inhibitory effect (IC50). Here is the method:
The DHODH enzyme assay was carried out with reference to “Benjamin Bader, Wolfgang Knecht, Markus Fries, and Monika Loffler, Expression, Purification, and Characterization of Histidine-Tagged Rat and Human Flavoenzyme Dihydroorotate Dehydrogenase, Protein Expression and Purification, 1998, 13, 414-422.”
The DHODH activity was evaluated using an enzyme assay system that is coupled with an assay in which a blue coloring agent 2,6-dichlorophenolindophenol (DCIP, available from MP Biomedicals, LLC, MP150118) is quenched. Purified recombinant human DHODH (DHODH, 31-395aa, Human, His tag, E. coli, ATGP1615) was purchased from ATGen Co. Ltd. The enzyme assay was carried out in a 384-well plate using a buffer solution containing 100 mmol/L Hepes (available from Dojindo Laboratories, 342-01375), 400 mmol/L NaCl (available from FUJIFILM Wako Pure Chemical Corporation, 191-01665), 10% Glycerol (available from FUJIFILM Wako Pure Chemical Corporation, 075-00616), 0.05% Triton X-100 (available from Sigma-Aldrich Co., LLC, T8787-100ML), 0.2 mmol/L Ubiquinone-10 (available from FUJIFILM Wako Pure Chemical Corporation, 216-00761), 0.1 mmol/L DHO (L-dihydroorotic acid, available from Sigma-Aldrich Co., LLC, D7128), 0.5% DMSO (dimethylsulfoxide, available from FUJIFILM Wako Pure Chemical Corporation, 047-29353), 0.175 μg/mL DHODH, and 0.12 mmol/L DCIP and having a pH adjusted to 8.0 by adding 5 mol/L potassium hydroxide (available from FUJIFILM Wako Pure Chemical Corporation, 168-21815). A test compound with a predetermined concentration was added using Biomek NX (available from Beckman Coulter Inc.), and the enzyme reaction was started by adding the substrate. The enzyme activity was assessed by measuring the decrease in DCIP absorbance (600 nm) for 50 minutes using an EnVision plate-reading spectrophotometer (available from PerkinElmer, Inc.).
The enzyme reaction inhibition rate at each test compound concentration was determined, and the 50% enzyme reaction inhibition concentration [IC50 (nmol/L)] was calculated using XLfit. Enzyme reaction inhibition rate (%)=(amount of luminescence in test compound-added well)/(amount of luminescence in DMSO-added well)×100
The abbreviations in the table have the following meanings. • A: IC50 value<10 nmol/L • B: 10 nmol/L≤IC50 value<100 nmol/L • C: 100 nmol/L≤IC50 value

T1 sequence (Q02127 31-395): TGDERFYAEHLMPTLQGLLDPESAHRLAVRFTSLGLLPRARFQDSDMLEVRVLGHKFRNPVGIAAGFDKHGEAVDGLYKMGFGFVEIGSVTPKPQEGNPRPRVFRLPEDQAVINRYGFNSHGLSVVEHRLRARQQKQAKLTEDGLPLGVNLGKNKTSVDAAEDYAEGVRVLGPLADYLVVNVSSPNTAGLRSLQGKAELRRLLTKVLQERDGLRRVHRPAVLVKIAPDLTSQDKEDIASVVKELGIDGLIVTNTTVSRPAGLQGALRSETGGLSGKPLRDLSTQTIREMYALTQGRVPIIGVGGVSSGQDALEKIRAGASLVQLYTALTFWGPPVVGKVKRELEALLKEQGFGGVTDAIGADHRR

As to `C[C@H](Oc1c(Nc2nnc(C3CC3)cc2C(=O)NS(C)(=O)=O)cccc1C1CCOCC1)C(F)(F)F` [Example 3-63], the GI50 (as a rule, the concentration giving 50% growth inhibition) in assay [1] was no less than 1000 nM. Moreover, the half-maximal inhibitory concentration (IC50) (in general, the midpoint of a concentration-inhibition curve) in assay [2] fell in the range of 10 to 100 nM.
As to `N#Cc1ccc(-c2cccc(Nc3ncc(C4CC4)nc3C(=O)O)c2OCC(F)(F)F)cc1` [Example 2-4], the GI50 in assay [1] was less than 100 nM. Further, the IC50 in assay [2] was less than 10 nM.
With `CS(=O)(=O)NC(=O)c1cc(C2CC2)cnc1Nc1cccc(C2CCOCC2)c1OCC(F)(F)F` [Example 3-34], the GI50 in assay [1] is less than 100 nM. Moreover, in assay [2], the IC50 was less than 10 nM.
As to `Cc1ccc(-c2cccc(Nc3ncc(C4CC4)nc3C(=O)NS(C)(=O)=O)c2OCC(F)(F)F)c(C)n1` [Example 3-15], the concentration for 50% growth inhibition (GI50) in assay [1] lay within 100 to 1000 nM. For the same molecule, the IC50 in assay [2] was 10 to 100 nM.
For `NS(=O)(=O)NC(=O)c1nc(C2CC2)cnc1Nc1cccc(C2CCOCC2)c1OC(F)F` [Example 3-50], the GI50 in assay [1] is less than 100 nM. The IC50 in assay [2] was less than 10 nM.
`CNNC(=O)c1nc(C2CC2)cnc1Nc1cccc(C2=CCOCC2)c1OCC(F)(F)F` [Example 1-12, 6-cyclopropyl-3-((3-(3,6-dihydro-2H-pyran-4-yl)-2-(2,2,2-trifluoroethoxy)phenyl)amino)-N′-methylpyrazine-2-carbohydrazide]: in assay [1], the GI50 lay within 100 to 1000 nM. Besides, in assay [2], the IC50 is 10 to 100 nM.
Consider `C[C@H](Oc1c(Nc2ncc(C3CC3)nc2C(=O)NS(N)(=O)=O)cccc1C1=CCOCC1)C(F)(F)F` [Example 3-27], for which the GI50 in assay [1] is less than 100 nM. Further, in assay [2], the IC50 was less than 10 nM.
On the same counts, the results for `Cc1cc(C#N)ccc1-c1cccc(Nc2ncc(C3CC3)nc2C(=O)O)c1OCC(F)(F)F` [Example 1-5, 3-((4′-cyano-2′-methyl-2-(2,2,2-trifluoroethoxy)-[1,1′-biphenyl]-3-yl)amino)-6-cyclopropylpyrazine-2-carboxylic acid] are less than 100 nM and less than 10 nM.
`O=c1[nH]c(-c2nc(C3CC3)cnc2Nc2cccc(C3=CCOCC3)c2OCC(F)(F)F)no1` [Example 1-7, 3-(6-cyclopropyl-3-((3-(3,6-dihydro-2H-pyran-4-yl)-2-(2,2,2-trifluoroethoxy)phenyl)amino)pyrazin-2-yl)-1,2,4-oxadiazol-5(4H)-one]: in assay [1], the GI50 was 100 to 1000 nM. In assay [2], the IC50 was less than 10 nM.
In the same order, the values of `N#Cc1ccc(-c2cc(F)cc(Nc3ncc(C4CC4)nc3C(=O)O)c2OC(F)F)cc1` [Example 2-12] are 100 to 1000 nM and 10 to 100 nM.
As for `CN(C)NC(=O)c1nc(C2CC2)cnc1Nc1cccc(C2=CCOCC2)c1OCC(F)(F)F` [Example 1-13, 6-cyclopropyl-3-((3-(3,6-dihydro-2H-pyran-4-yl)-2-(2,2,2-trifluoroethoxy)phenyl)amino)-N,N-dimethylpyrazine-2-carbohydrazide], the GI50 in assay [1] was no less than 1000 nM. In addition, the half-inhibitory concentration (IC50) in assay [2] was no less than 100 nM.
On the same counts, the results for `N#CNC(=O)c1nc(C2CC2)cnc1Nc1cccc(C2CCOCC2)c1OCC(F)(F)F` [Example 3-29] are less than 100 nM and less than 10 nM.
On the same counts, the results for `O=C(O)c1nc(C2CC2)cnc1Nc1cccc(-c2ccc(F)cc2)c1OCC(F)(F)F` [Example 2-13] are less than 100 nM and less than 10 nM.
`O=Cc1nc(C2CC2)cnc1Nc1cccc(C2=CCOCC2)c1OCC(F)(F)F` [Example 1-14, 6-cyclopropyl-3-((3-(3,6-dihydro-2H-pyran-4-yl)-2-(2,2,2-trifluoroethoxy)phenyl)amino)pyrazine-2-carbaldehyde]: the GI50 in assay [1] is no less than 1000 nM. For the same molecule, in assay [2], the IC50 is no less than 100 nM.
On the same counts, the results for `C[C@H](Oc1c(Nc2ccc(C3CC3)cc2C(=O)NS(C)(=O)=O)ccnc1C1=CCOCC1)C(F)(F)F` [Example 3-64] are 100 to 1000 nM and 10 to 100 nM.
For the molecule `N#CNC(=O)c1cc(C2CC2)cnc1Nc1cccc(-c2ccc(C#N)cc2)c1OCC(F)(F)F` [Example 3-39], the GI50 in assay [1] is less than 100 nM. Besides, the IC50 in assay [2] is less than 10 nM.
On the same counts, the results for `CS(=O)(=O)NC(=O)c1nc(C2CC2)cnc1Nc1cc(F)cc(-c2ccc(C#N)cc2)c1OC(F)F` [Example 3-55] are 100 to 1000 nM and 10 to 100 nM.
Consider `CCOc1c(Nc2ncc(C3CC3)nc2C(=O)NS(C)(=O)=O)cccc1C1=CCOCC1` [Example 3-57], for which the GI50 in assay [1] is less than 100 nM. Further, the IC50 in assay [2] was less than 10 nM.
In the same order, the values of `NS(=O)(=O)NC(=O)c1nc(C2CC2)cnc1Nc1cccc(C2=CCOCC2)c1OCC(F)(F)F` [Example 3-10] are less than 100 nM and less than 10 nM.
Consider `FC(F)(F)COc1c(Nc2ncc(C3CC3)nc2-c2nnn[nH]2)cccc1C1=CCOCC1` [Example 1-6], for which the GI50 in assay [1] is less than 100 nM. The IC50 in assay [2] is less than 10 nM.
`N#Cc1ccc(-c2cccc(Nc3ncc(C4CC4)nc3C(=O)NS(N)(=O)=O)c2OC(F)F)cc1` [Example 3-52]: the GI50 in assay [1] fell in the range of 100 to 1000 nM. Further, the IC50 in assay [2] was in the range of 10 to 100 nM.
On to `O=C(O)c1cc(C2CC2)cnc1Nc1cc(F)cc(C2CCOCC2)c1OC(F)F` [Example 2-3], for which the GI50 in assay [1] is less than 100 nM. In assay [2], the half-maximal inhibitory concentration (IC50) was less than 10 nM.
With `CS(=O)(=O)NC(=O)c1cc(C2CC2)cnc1Nc1cccc(C2=CCOCC2)c1OCC(F)(F)F` [Example 3-24], the concentration for 50% growth inhibition (GI50) in assay [1] is less than 100 nM. In assay [2], the IC50 is less than 10 nM.
On the same counts, the results for `NS(=O)(=O)NC(=O)c1cc(C2CC2)cnc1Nc1cccc(C2CCOCC2)c1OCC(F)(F)F` [Example 3-35] are less than 100 nM and less than 10 nM.
On the same counts, the results for `CS(=O)(=O)NCc1nc(C2CC2)cnc1Nc1cccc(C2=CCOCC2)c1OCC(F)(F)F` [Example 1-15, N-((6-cyclopropyl-3-((3-(3,6-dihydro-2H-pyran-4-yl)-2-(2,2,2-trifluoroethoxy)phenyl)amino)pyrazin-2-yl)methyl)methanesulfonamide] are no less than 1000 nM and no less than 100 nM.
In the same order, the values of `C[C@H](Oc1c(Nc2ccc(C3CC3)cc2C(=O)O)cncc1C1=CCOCC1)C(F)(F)F` [Example 2-6] are less than 100 nM and less than 10 nM.
Regarding `CCOc1c(C2=CCOCC2)ccc(F)c1Nc1ncc(C2CC2)cc1C(=O)O` [Example 2-14], the GI50 in assay [1] was in the range of 100 to 1000 nM. For the same molecule, in assay [2], the IC50 was less than 10 nM.
Take `C[C@H](Oc1c(Nc2ccc(C3CC3)cc2C(=O)O)ccnc1C1=CCOCC1)C(F)(F)F` [Example 1-18]: the GI50 in assay [1] is less than 100 nM. For the same molecule, the half-inhibitory concentration (IC50) in assay [2] was less than 10 nM.
With `N#Cc1ccc(-c2cccc(Nc3ncc(C4CC4)cc3C(=O)O)c2OCC(F)(F)F)cc1` [Example 2-7], the GI50 in assay [1] was less than 100 nM. In assay [2], the IC50 is less than 10 nM.
With `CC(=O)c1nc(C2CC2)cnc1Nc1cccc(C2=CCOCC2)c1OCC(F)(F)F` [Example 1-10, 1-(6-cyclopropyl-3-((3-(3,6-dihydro-2H-pyran-4-yl)-2-(2,2,2-trifluoroethoxy)phenyl)amino)pyrazin-2-yl)ethan-1-one], the GI50 in assay [1] was in the range of 100 to 1000 nM. Also, in assay [2], the IC50 lay in the range of 10 to 100 nM.
On the same counts, the results for `N#Cc1ccc(-c2cc(F)cc(Nc3ncc(C4CC4)nc3C(=O)NS(N)(=O)=O)c2OC(F)F)cc1` [Example 3-54] are 100 to 1000 nM and 10 to 100 nM.
